Assay [1] relates to breast carcinoma cell lines MCF-7. The experiment in a line: In vitro cytotoxic activity, Calcein AM assay, MCF7. Format: cell-based, human. Conditions: 72 hours, read-out: IC 50 MCF7. The text has this: (§1) One of the parameters used, as the basis for cytotoxicity assays, is the metabolic activity of viable cells. For example, a microtiter assay, which uses the Calcein AM, is now widely used to quantitate cell proliferation and cytotoxicity. For instance, this assay is used in drug screening programs and in chemosensitivity testing. Because only metabolically active cells cleave Calcein AM, these assays detect viable cells exclusively. The quantity of reduced Calcein AM corresponds to the number of vital cells in the culture.
(§2) Human T-lymphoblastic leukemia cell line CEM; promyelocytic HL-60 and monocytic U937 leukemias; breast carcinoma cell lines MCF-7; cervical carcinoma cells HELA; mouse fibroblasts NIH3T3; human erythroleukaemia K562 and human malignant melanoma cells G361 were used for routine screening of compounds. The cells were maintained in Nunc/Corning 80 cm^2 plastic tissue culture flasks and cultured in cell culture medium (DMEM with 5 g/l glucose, 2 mM glutamine, 100 U/ml penicillin, 100 μg/ml streptomycin, 10% fetal calf serum and sodium bicarbonate).
(§3) The cell suspensions that were prepared and diluted according to the particular cell type and the expected target cell density (10^4 cells per well based on cell growth characteristics) were added by pipette (80 μl) into 96/well microtiter plates. Inoculates were allowed a pre-incubation period of 24 hours at 37° C. and 5% CO2 for stabilisation. Four-fold dilutions of the intended test concentration were added at time zero in 20 μl aliquots to the microtiter plate wells. Usually, test compound was evaluated at six 4-fold dilutions. In routine testing, the highest well concentration was 166.7 μM, but it can be the matter of change dependent on the agent. All drug concentrations were examined in duplicates. Incubations of cells with the test compounds lasted for 72 hours at 37° C., in 5% CO2 atmosphere and 100% humidity. At the end of incubation period, the cells were assayed by using the Calcein AM. Ten microliters of the stock solution were pipetted into each well and incubated further for 1 hours. Fluorescence (FD) was measured with the Labsystem FIA Reader Fluoroscan Ascent (UK). The tumour cell survival (GI50) was calculated using the following equitation: GI50=(FDdrug exposed well/mean FDcontrol wells)×100%. The GI50 value, the drug concentration lethal to 50% of the tumour cells, was calculated from the obtained dose response curves (FIG. 3).

The test system of assay [2] is human erythroleukaemia K562. The experiment in a line: In vitro cytotoxic activity, Calcein AM assay, K-562. Conditions: 72 hours, read-out: IC 50 K-562. Format: cell-based.
Text: as §1, §2, §3

For assay [3], the system named is tobacco callus Nicotiana tabacum L. cv. Wisconsin 38. The experiment in a line: Growth of cytokinin-dependent tobacco callus. Format: cell-based. Conditions: for Activity (%) [10^−5 mol · l^−1 BAP = 100%]: callus growth, at concentration with highest activity; for Concentration with highest activity: fresh callus weight after four weeks. On the procedure:
Cytokinin-dependent tobacco callus Nicotiana tabacum L. cv. Wisconsin 38 was maintained at 25° C. in darkness on modified Murashige-Skoog medium, containing per 1 liter: 4 μmol nicotinic acid, 2.4 μmol pyridoxine hydrochloride, 1.2 μmol thiamine, 26.6 μmol glycine, 1.37 μmol glutamine, 1.8 μmol myo-inositol, 30 g of sucrose, 8 g of agar, 5.37 μmol α-naphtylacetic acid (NAA) and 0.5 μmol benzylaminopurine (BAP). Subcultivation was carried out every three weeks. Fourteen days before the bioassay, the callus tissue was transferred to the media without 6-benzylaminopurine (BAP). Biological activity was determined from the increase in fresh callus weight after four weeks of cultivation. Five replicates were prepared for each cytokinin concentration and the entire test was repeated twice. From the obtained data, the concentration with highest activity was selected for each compound tested. Relative activity of the compound at this concentration was calculated (Tab. 6). […] The cytokinins to be tested were dissolved in dimethylsulfoxide (DMSO) and the solution brought up to 10^−3M with distilled water. This stock was further diluted in the respective media used for the biotest to concentrations ranging from 10^−8M to 10^−4M.

In assay [4] the test system is mouse fibroblasts NIH3T3. The experiment in a line: In vitro cytotoxic activity, Calcein AM assay, NIH-3T3. The class given is cell-based. Conditions: 72 hours, read-out: IC 50 NIH-3T3.
Text: as §1, §2, §3

Assay [5] deals with promyelocytic HL-60. Nature of the assay: In vitro cytotoxic activity, Calcein AM assay, HL60. Format: cell-based, human. Conditions: 72 hours, read-out: IC 50 HL60.
Text: as §1, §2, §3

Assay [6] concerns Human T-lymphoblastic leukemia cell line CEM. Nature of the assay: In vitro cytotoxic activity, Calcein AM assay, CEM. Format: cell-based. Conditions: 72 hours.
Text: as §1, §2, §3

Assay [7] relates to Amaranthus caudatus cotyledon/hypocotyl explants. Nature of the assay: Amaranthus bioassay (betacyanin content). Format: in vivo. Conditions: for Concentration with highest activity: 48 h dark; for Activity (%) [10^−5 mol · l^−1 BAP = 100%]: at concentration with highest activity. On the procedure:
Standard Amaranthus bioassay was performed with several modifications. The seeds of Amaranthus caudatus var. atropurpurea were surface-sterilised in 10% N-chlorobenzenesulfonamide (w/v) for 10 min and washed 5 times in deionized water. They were placed in 15 cm Petri dishes containing paper tissues saturated with deionized water. After 72 h of cultivation at 25° C. in darkness, the roots of the seedlings were cut off. The explants, consisting of two cotyledons and hypocotyls, were placed in 5 cm Petri dishes on two layers of filter paper soaked in 1 ml of incubation medium containing 10 μmol NA2HPO4-KH2PO4, pH 6.8, 5 μmol tyrosine and the cytokinin to be tested. There were 20 explants per dish. The procedure was carried out under a green safe light in a darkroom. After a 48 h of incubation at 25° C. in darkness, betacyanin was extracted by freezing the explants in 4 ml […] acetic acid. The concentration of betacyanin was determined by comparing the absorbance at 537 nm and 620 nm as follows: ΔA=[…]-[…]. From the obtained data, the concentration with highest activity was selected for each compound tested. Relative activity of the compound at this concentration was calculated (Tab. 12). […] The values shown in table 8 are means of five replicates and the entire test was repeated twice. The cytokinins to be tested were dissolved in dimethylsulfoxide (DMSO) and the solution brought up to 10^-3M with distilled water. This stock was further diluted in the respective media used for the biotest to concentrations ranging from 10^-8M to 10^-4M. […] From the data obtained (FIG. 14) the maximum effective concentration of the tested compound was calculated as well as its relative effectiveness at this concentration (Table 12). […]

Assay [8] has as its system HOS. Nature of the assay: In vitro cytotoxic activity, Calcein AM assay, HOS. The class given is cell-based. Conditions: 72 hours.
Assay [9] deals with Triticum aestivum cv. Hereward. Nature of the assay: Senescence inhibition on winter wheat leaf segments (chlorophyll retention). Format: in vivo. Conditions: for Concentration with highest activity: chlorophyll retention in excised wheat leaf tips, 96 h dark; for Activity (%) [10^−4 mol · l^−1 BAP = 100%]: chlorophyll retention, at concentration with highest activity. As for the experimental part:
Seeds of winter wheat, Triticum aestivum cv. Hereward, were washed under running water for 24 hours and then sown on vermiculite soaked with Knop's solution. They were placed in the grown chamber at 15° C. with a 16/8 h light period at 50 μmol·m^−2·s^−1. After 7 days, the first leaf was fully developed and the second leaf had started to grow. A tip section of the first leaf, approximately 35 mm long, was removed from 5 seedlings and trimmed slightly to a combined weight of 100 mg. The basal ends of the five leaf tips were placed in the wells of a microtiter polystyrene plate containing 150 μl of a cytokinin solution each. The entire plate was inserted into a plastic box lined with paper tissues soaked in distilled water to prevent leaf sections from drying out. After a 96 h incubation in the dark at 25° C., the leaves were removed and chlorophyll extracted by heating at 80° C. for 10 min in 5 ml of 80% ethanol (v/v). The sample volume was then restored to 5 ml by the addition of 80% ethanol (v/v). The absorbency of the extract was recorded at 665 nm. In addition, chlorophyll extracts from fresh leaves and leaf tips incubated in deionised water were measured. From the obtained data, the concentration with highest activity was selected for each compound tested. Relative activity of the compound at this concentration was calculated (Tab. 10). The activity obtained for 10^−4 M 6-benzylaminopurine (BAP) was postulated as 100%. The values shown are means of five replicates and the whole experiment was repeated twice. The cytokinins to be tested were dissolved in dimethylsulfoxide (DMSO) and the solution brought up to 10^−3M with distilled water. This stock was further diluted in distilled water to concentrations ranging from 10^−8M to 10^−4M.

These results are taken from patent publication US8119614B2, “Substitution derivatives of N6-benzyladenosine, methods of their preparation, their use for preparation of drugs, cosmetic preparations and growth regulators, pharmaceutical preparations, cosmetic preparations and growth regulators containing these compounds” (Ustav Experimentalni Botaniky Akademie Ved Ceske Republiky, priority 2002, dated 2012).

The structures appear in SMILES notation.

As to `OC[C@H]1O[C@@H](n2cnc3c(NCc4ccc(F)cc4Cl)ncnc32)[C@H](O)[C@@H]1O` [2-chloro-4-fluorobenzylamino, 6-(2-chloro-4-fluorobenzylamino)purine riboside], the IC50 in assay [1] is more than 167 µM; in assay [2] it was 11.7 µM; in assay [4], more than 167 µM; in [5] it was 9 µM; in assay [6] it was 20.9 µM; in assay [8], more than 167 µM. The figures for the “Activity (%) [10^−5 mol · l^−1 BAP = 100%]” value in assay [3] and in [7] were 98 ± 4% and 115 ± 1%, respectively. Besides, the results for the “Concentration with highest activity” value in assay [3] and in assay [7] were 10^−5 mol · l^−1 and 10^−4 mol · l^−1, respectively.
`OC[C@H]1O[C@@H](n2cnc3c(NCc4ccc(F)c(F)c4F)ncnc32)[C@H](O)[C@@H]1O` [2,3,4-trifluorobenzylamino, 6-(2,3,4-trifluorobenzylamino)purine riboside]: the IC50 in assay [1] is more than 167 µM; in [2], more than 167 µM; in assay [4] it was more than 167 µM; in assay [5], 13 µM; in assay [6] it was 58.2 µM; in [8], more than 167 µM. Further, in [9], the “Concentration with highest activity” value is recorded as 10^−4 mol · l^−1. Besides, the “Activity (%) [10^−4 mol · l^−1 BAP = 100%]” value in assay [9] was 144 ± 12%.
On to `OC[C@H]1O[C@@H](n2cnc3c(NCc4cc(F)c(F)cc4F)ncnc32)[C@H](O)[C@@H]1O` [2,4,5-trifluorobenzylamino, 6-(2,4,5-trifluorobenzylamino)purine riboside], for which the “Activity (%) [10^−5 mol · l^−1 BAP = 100%]” value came to 95 ± 3% in assay [3] and 120 ± 1% in [7]. Also, the “Concentration with highest activity” value in assay [3] is on record as 10^−5 mol · l^−1; in [7], 10^−4 mol · l^−1.
As to `OC[C@H]1O[C@@H](n2cnc3c(NCc4ccc(F)cc4F)ncnc32)[C@H](O)[C@@H]1O` [2,4-difluorobenzylamino, 6-(2,4-difluorobenzylamino)purine riboside], the IC50 in [1] is more than 167 µM; in assay [2] it was 7.4 µM; in assay [4] it was more than 167 µM; in assay [5], 3.4 µM; in [6], 7.1 µM; in assay [8], more than 167 µM. Further, the “Concentration with highest activity” value in [9] and in assay [7] was 10^−4 mol · l^−1 each time. The “Activity (%) [10^−4 mol · l^−1 BAP = 100%]” value in assay [9] is on record as 171 ± 8%. For the same molecule, the “Activity (%) [10^−5 mol · l^−1 BAP = 100%]” value in [7] is 88 ± 7%.
Take `OC[C@H]1O[C@@H](n2cnc3c(NCc4ccc(Cl)cc4Cl)ncnc32)[C@H](O)[C@@H]1O` [2,4-dichlorobenzylamino, 6-(2,4-dichlorobenzylamino)purine riboside]: the IC50 in assay [1] was 127 µM; in [2], 85.7 µM; in assay [4], more than 167 µM; in assay [5], 96.3 µM; in assay [6], 86.7 µM; in assay [8] it was more than 167 µM. For the same molecule, the “Concentration with highest activity” value in assay [9] was 10^−5 mol · l^−1; in assay [7], 10^−4 mol · l^−1. Further, the “Activity (%) [10^−4 mol · l^−1 BAP = 100%]” value in [9] was found to be 5 ± 1%. Moreover, the “Activity (%) [10^−5 mol · l^−1 BAP = 100%]” value in assay [7] was determined as 3 ± 2%.
As for `COc1ccc(CNc2ncnc3c2ncn3[C@@H]2O[C@H](CO)[C@@H](O)[C@H]2O)cc1O` [3-hydroxy-4-methoxybenzylamino, 6-(3-hydroxy-4-methoxybenzylamino)purine riboside], the IC50 in [1], in [2], in assay [4], in assay [5], in [6] and in [8] was more than 167 µM in each case. For the same molecule, the “Concentration with highest activity” value in assay [9] and in assay [7] was 10^−4 mol · l^−1 in each case. Further, the “Activity (%) [10^−4 mol · l^−1 BAP = 100%]” value in [9] is recorded as 22 ± 5%. Besides, the “Activity (%) [10^−5 mol · l^−1 BAP = 100%]” value in assay [7] is given as 0%.
Turning to `OC[C@H]1O[C@@H](n2cnc3c(NCc4cccc(I)c4)ncnc32)[C@H](O)[C@@H]1O` [3-jodobenzylamino, 6-(3-iodobenzylamino)purine riboside], in assay [3], the “Activity (%) [10^−5 mol · l^−1 BAP = 100%]” value stood at 47 ± 12% and the “Concentration with highest activity” value was 10^−6 mol · l^−1. In assay [9], the “Concentration with highest activity” value was 10^−4 mol · l^−1 and the “Activity (%) [10^−4 mol · l^−1 BAP = 100%]” value was found to be 98 ± 4%. In [7], the “Concentration with highest activity” value is given as 10^−5 mol · l^−1 and the “Activity (%) [10^−5 mol · l^−1 BAP = 100%]” value was found to be 102 ± 18%.
Turning to `COc1ccc(CNc2ncnc3c2ncn3[C@@H]2O[C@H](CO)[C@@H](O)[C@H]2O)cc1OC` [3,4-dimethoxybenzylamino, 6-(3,4-dimethoxybenzylamino)purine riboside], in [9], the “Concentration with highest activity” value is 10^−4 mol · l^−1 and the “Activity (%) [10^−4 mol · l^−1 BAP = 100%]” value is 47 ± 6%. In addition, in assay [7], the “Concentration with highest activity” value was 10^−4 mol · l^−1 and the “Activity (%) [10^−5 mol · l^−1 BAP = 100%]” value stood at 2 ± 1%.
